Reference: US20080182904A1, “Baclofen for Relapse Protection in Addiction” (priority 2007, published 2008)

How the values were obtained:
[1] = cited from earlier work
[2] = cited from earlier work; remark: listed apart in the source
[3] = Alcohol-challenge test for relapse in a patient treated with baclofen for alcohol dependence; assay type: in vivo, human
Experimental: For alcoholism, vulnerability is tested with an alcohol-challenge test of about three to five standard drinks. The number of drinks can and should be varied (typically lower) if any adverse signs or cravings appear in the patient. […] If craving occurs, the patient is not protected against relapse and the SSD dosage needs to be increased and the test performed again until craving stops occurring altogether upon renewed alcohol-challenge (s). Once that state is achieved, the patient is protected against relapse.
The susceptibility of a patient to relapse while being treated for alcohol dependence using baclofen was determined. The patient (themself a physician) had been symptom-free for more than one year and was on a baclofen dose of 120 mg/day (40 mg, three times per day).
First challenge: During a social gathering, the patient had 3 standard drinks of alcohol (gin and tonic) over a few hours and evaluated the effects in the presence of a physician witness. The first drink was consumed slowly by sipping over some 40 minutes, without the slightest urge to drink it rapidly (and which had previously been the only way the patient would drink, e.g., typically consuming the drink within 5 minutes). A second drink was ordered, consumed and started to produce a pleasant mild euphoria. A third drink was begun but the patient was not able to finish it, something that would have been impossible during untreated alcohol dependence. At the time, the patient felt no desire to finish the third drink, felt a bit high and maintained the ability to chat. After a night's sleep, the patient woke up without any feelings of remorse or fear. […] The following hours were unremarkable. No alcohol thoughts or dreams occurred in the following weeks.
Second challenge: The patient repeated the experiment approximately one month later with an even stronger challenge: five drinks. Again in the presence of another physician, the patient succeeded in having 5 drinks of vodka and tonic over 6 hours. […] Accordingly the daily dosage of baclofen was increased from 40 mg three times daily, to 60 mg three times daily (180 mg/day). […] Accordingly, symptom suppression is dose-dependent and may require higher dosage when challenge is important.
Third challenge: To test if a higher than routine dose of baclofen can prevent cravings, even in the presence of a massive amount of alcohol such as is ingested during heavy drinking or during active relapse, the patient's baclofen dose was […] 24 hours prior to consuming an alcoholic beverage. The patient took 30 mg baclofen in the morning, a second such dose 8 hours later and a few hours later (in the evening) took dose of 80 mg baclofen at the same time as beginning to drink large amounts of alcohol as could reasonably tolerated, expecting that to be about a fifth of Scotch. The alcohol was consumed over several hours and the next day, actual consumption was measured to be four fifths of the bottle. […] The patient is able to have an occasional drink in a non-dependent fashion.

In the case of `NCC(CC(=O)O)c1ccc(Cl)cc1` (centres unmarked) [baclofen], the “dosage sufficient for craving not to reappear” value ([1]; after progressive reduction from SSD, over the complete nine months of the published study) is listed as 120 mg/day, the “coexistent (comorbid preexisting) anxiety” value ([1]; at SSD) is listed as “greatly attenuated” and the side effect ([1]; at SSD, reduced by lowering the dosage to 120 mg/day) is listed as “somnolence”. For the same compound, the “dose needed for craving to completely and permanently disappear (symptom-suppressing dose, SSD)” value ([1]; oral, gradual dose-escalation, one patient) was 270 mg/day, the “complete and prolonged suppression of symptoms and consequences of AD” value ([2]; seven individual patients (Geneva) and one hundred patients (Vienna)) was “successfully reproduced” and the relapse ([2]; some patients treated in Switzerland, even at high-dose baclofen) was “did relapse”. The “craving after third challenge” value ([3]; 30 mg + 30 mg + 80 mg on the day, four fifths of a bottle of Scotch over several hours, next day) was “no craving and no desire whatsoever to drink liquor”, the “craving and symptoms before challenge” value ([3]; 120 mg/day (40 mg three times per day), symptom-free for more than one year) was “completely suppressed craving and symptoms” and the “craving during follow-up after third challenge” value ([3]; 180 mg/day for six days, then maintenance dose of 120 mg/day) was “has not experienced any craving for more than one year”. The “craving after first challenge” value ([3]; 3 standard drinks (gin and tonic) over a few hours, 120 mg/day, after a night's sleep) was “no desire or thought to drink whatsoever”, the “craving after second challenge” value ([3]; 5 drinks of vodka and tonic over 6 hours, 120 mg/day, next day in the afternoon) was “a bout of craving was experienced” and the “craving on the increased regimen” value ([3]; second challenge, 60 mg three times daily (180 mg/day)) was “craving was again completely suppressed”. For the same compound, the “effect of an additional dose on the bout of craving” value ([3]; second challenge, administration of 40 mg, craving reappeared several hours later) was “suppressed the craving within the hour” and the “craving after dose reduction” value ([3]; second challenge, after six days at 180 mg/day progressively reduced to 120 mg/day) was “cravings did not reoccur”.
